Consider one compound from PMC12005787, “Synthetic Lethality of SHP2 and XIAP Suppresses Proliferation and Metastasis in KRAS‐mutant Nonsmall Cell Lung Cancer” (Advanced Science, 2025).

For orientation: Kd means the equilibrium constant for the complex coming apart.

The target of assay [1] is T1, His‐ΔSHP2 (Homo sapiens, UniProt Q06124).
T1 construct: His‐ΔSHP2, encompassing the peptide from amino acids 205–593 retaining PTP activity; His; made in house; host or cells: E. coli
T1 sequence (Q06124 205-593): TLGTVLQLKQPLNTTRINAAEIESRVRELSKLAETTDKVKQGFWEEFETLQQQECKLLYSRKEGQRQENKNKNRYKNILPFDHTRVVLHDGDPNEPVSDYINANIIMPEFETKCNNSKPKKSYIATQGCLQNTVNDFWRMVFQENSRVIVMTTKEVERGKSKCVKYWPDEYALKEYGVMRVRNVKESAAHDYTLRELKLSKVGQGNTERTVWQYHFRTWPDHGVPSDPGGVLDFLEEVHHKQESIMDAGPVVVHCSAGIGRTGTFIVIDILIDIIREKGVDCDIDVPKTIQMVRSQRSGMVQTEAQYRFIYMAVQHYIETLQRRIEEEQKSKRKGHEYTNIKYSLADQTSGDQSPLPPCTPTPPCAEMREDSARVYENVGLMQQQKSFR
Briefly: Reversibility of embelin-SHP2 binding (dialysis). In kind it is biochemical. The method, then:
To test whether embelin and SHP2 were reversibly bound, the purified His‐ΔSHP2 fusion protein was dialyzed overnight in dialysis buffer (10 mM HEPES, 0.5 M NaCl, 1 mM TCEP, and 10% glycerol, pH 7.5), and the protein activity was detected by DiFMUP. After incubating embelin with dialyzed protein at 37 °C for 30 min, the mixed solution was dialyzed overnight or ultrafiltered, with DMSO as a control, and protein activity was detected by DiFMUP to determine the mode of protein‐compound binding.

The target in another assay is T2, His‐ΔSHP2^K325A (Homo sapiens, UniProt Q06124, K325A).
T2 construct: His‐ΔSHP2, encompassing the peptide from amino acids 205–593 retaining PTP activity; His; made in house; host or cells: E. coli BL21
Briefly: Isothermal titration calorimetry. The class given is binding. To be noted: read-out: KD value (ITC). The method, then:
The purified His‐ΔSHP2, His‐SHP2, or His‐ΔSHP2^K325A proteins were dialyzed overnight in dialysis buffer (20 mM HEPES, 0.15 M NaCl, 1 mM TCEP, 10% glycerol, pH 7.5). The protein concentration was determined using the BCA Protein Assay Kit, and the purity of the proteins was detected by Coomassie Brilliant Blue staining. ITC experiments were performed when the protein concentration was higher than 2 mg mL^−1 and the purity was greater than 90%. The instrument (Malvern Instruments, USA) was considered to be functioning optimally for compound and protein titration experiments when the DP value was < 0.05 µcal s^−1 by the water droplet experiment. After the sample cell was cleaned twice with protein dialysis buffer, a protein sample (300 µL) was loaded to the sample cell, an equal amount of ultrapure water was added to the reference cell, and the compound solution dissolved with the same dialysis buffer was put into the corresponding cell, in which the protein‐compound molar ratio was 1:10–1:20. The parameters were adjusted based on the curve‐fitting results to determine the optimal binding concentration gradient. Based on the exothermic changes in the reaction, the entropy increase and enthalpy change were analyzed using software fitting to obtain parameters such as the binding coefficient and affinity constant between the small molecules and proteins. […]

The next assay deals with T3, His‐SHP2 (full‐length) (Homo sapiens, UniProt Q06124).
T3 construct: His; made in house; host or cells: E. coli
Briefly: Full-length SHP2 activity activated by bis-phosphorylated Gab1 peptide. In kind it is biochemical. The method, then:
For detection of SHP2 allosteric regulation by the compounds, the soluble fusion His‐SHP2 protein was cloned, expressed, and purified by constructing a pET28a‐PTPN11 recombinant plasmid in E. coli. Subsequently, 148 nM His‐SHP2 protein with 14.8 µM peptide (bis‐phosphorylated peptide from Gab1, with the sequence of: H2N‐VE(pY)LDLDLD(PEG8)RVD‐(pY)VVVDQQ‐amide) was mixed thoroughly in reaction buffer and incubated for 30 min at 37 °C in the dark. The fluorescence intensity was detected by DiFMUP after addition of different drugs and incubation at 37 °C for 30 min, with SHP099 and Na3VO4 as positive controls and unactivated protein as negative controls.

In assay [2] the target is T1, His‐ΔSHP2. Briefly: Enzymatic inhibition analysis (Michaelis-Menten, Lineweaver-Burk). The class given is biochemical. The method, then: A Michaelis‐Menten model and Lineweaver‐Burk plot of SHP2 inhibition by embelin were established. In brief, enzyme kinetics of SHP2 varied with the concentrations of substrate DiFMUP and embelin, concentrations of embelin were selected at 0, 10, and 20 µM, and concentrations of DiFMUP were selected at 10, 20, 40, 80, and 160 µM. Recombinant His‐ΔSHP2 was preincubated for 30 min with embelin or DMSO at various concentrations in the absence of substrate and then assayed for enzymatic activity at different times as mentioned above.

Assay [3] deals with NCI-H2122, A549, and NCI-H1944 cells. Briefly: Cell senescence β-galactosidase staining. The class given is cell-based, human. To be noted: A549, NCI‐H2122, and NCI‐H1944 cells. Here is the method:
Cell senescence β-galactosidase staining
NCI-H2122, A549, and NCI-H1944 cells in the logarithmic growth phase were seeded into 48-well plates and cultured overnight. The supernatant was aspirated and fresh serum-free (0%), low-serum (3%), or regular serum (10%) medium with different drugs was added for 48 h. When the supernatant was discarded, β-galactosidase staining fixation fluid were added for 15 min and β-galactosidase staining solution were imported overnight at 37 ℃.
Finally, the staining results were recorded using an inverted microscope.

Setting [4] is: embelin 0, 10, 20 µM, DiFMUP 10-160 µM.

For `CCCCCCCCCCCC1=C(O)C(=O)C=C(O)C1=O` [Embelin], the “mode of binding to SHP2 (dialysis)” value on His‐ΔSHP2 [1] was “noncovalent”. Moreover, the Kd at His‐ΔSHP2^K325A was found to be 346 nM. Moreover, the “effect on SHP2 full‐length activity allosterically activated by bis‐phosphorylated Gab1 peptide” value on His‐SHP2 (full‐length) is reported as “no effect”. The “type of inhibition of SHP2” value on His‐ΔSHP2 [2] is on record as “noncompetitive inhibitor”. Besides, at His‐ΔSHP2 [2] (setting [4]), the “Km of ΔSHP2 protein after addition of compound” value is on record as “unchanged” and the “Vm of ΔSHP2 protein after addition of compound” value was “decreased”. Moreover, the “induction of cell senescence” value in assay [3] was “induced senescence”.
